From US20240140949A1, “ANTI-CANCER PHARMACEUTICAL COMPOSITION FOR TARGETING HEAT SHOCK PROTEIN 70, CONTAINING INDOLOQUINAZOLIDINE ALKALOID” (SEOUL NATIONAL UNIVERSITY R & DB FOUNDATION, priority 2021, published 2024)
Each block holds one compound with its values, some of them ahead of it.

Legend:
H1299 lung cancer cells = test: Cell viability (MTT assay) in H1299 cells; format: cell-based, human; conditions: 0.5-10 μM, 3 days, MTT (FIG. 9-12)
From the text: (§1) Human lung cancer cell lines (H1299, H460, A549, H226B, and PC9), breast cancer cell line (MDA-MB-231), liver cancer cell line (Hep3B), kidney cancer cell line (786-0), prostate cancer cell lines (DU145 and PC-3), and mouse lung cancer cell line (Lewis Lung Carcinoma, LLC) were purchased from ATCC (American Type Culture Collection) or obtained from Dr. John V. Heymach of MD Anderson Cancer Center, USA. The human head and neck cancer cell line (UMSCC38) was obtained from Dr. Jeffrey N. Myers (MD Anderson Cancer Center, USA). Human colon cancer cell lines (HCT116 and HT-29) and glioblastoma cell line (U87MG) were obtained from Professor Sang Kook Lee (Seoul National University College of Pharmacy). The human kidney cancer cell line (Caki-1), and gastric cancer cell line (SNU-638) were purchased from the Korean Cell Line Bank. The chemotherapy-resistant cells [paclitaxel-resistant H460 cells (H460/PcR), paclitaxel-resistant H226B cells (H226B/PcR), cisplatin-resistant H1299 cells (H1299/CsR), pemetrexed-resistant H1299 cells (H1299/PmR)] and molecularly targeted anticancer therapy-resistant cells [erlotinib-resistant PC9 cells (PC9/ER)] were constructed by treating the respective anti-cancer drugs for more than three months. H1299, H460, H226B, PC9, Hep3B, 786-0, DU145, PC-3, HCT116, HT-29, SNU-638, chemotherapeutic resistant cells, and molecularly targeted anticancer therapy-resistant cells were cultured in RPMI 1640 media containing 10% fetal bovine serum (FBS) and antibiotics at 37° C. under 5% CO2 conditions, while MDA-MB-231, UMSCC38, U87MG, Caki-1 were cultured in DMEM media containing 10% FBS and antibiotics at 37° C. under 5% CO2 conditions. Cells were passaged 1-2 times per week.
(§2) The cancer cell lines were seeded in a 96-well plate at a density of 2×10^3 cells per well and cultured for 24 hours to allow the cells to attach. The cells were then treated with diluted drugs in media for 3 days and cell viability was assessed using MTT assay or crystal violet (CB) assay. For the MTT assay, MTT solution dissolved in PBS was added to achieve a final concentration of 500 μg/mL and incubated for 2-4 hours, after which the medium was removed and the formed formazan was dissolved in 100% DMSO, followed by measuring the absorbance at 570 nm. For the CB assay, the cultured cells were fixed with 100% methanol, stained with a 0.025% crystal violet solution, dissolved in 1% SDS solution, and the absorbance was measured at 570 nm. Cell viability was calculated as the percentage of absorbance change in drug-treated group compared to vehicle (DMSO) treated control group.

[1] = system: Hsp70 protein and Hsp70/Hsp90 client proteins (Akt, Src, and MEK); test: Western blot of Hsp70 and client proteins in lung cancer cells; format: cell-based, human; conditions: for expression of Hsp70 protein and Hsp70/Hsp90 client proteins (Akt, Src, and MEK): H1299 cells, up to 250 nM, 2 days (FIG. 17)
From the text: as §1
The cells treated with the drug were treated with RIPA lysis buffer [50 mM Tris-HCl (pH 7.4), 150 mM NaCl, 1 mM EDTA, 0.25% sodium deoxycholate, 1% Triton X-100, 100 mM NaF, 5 mM Na3VO4, 1 mM PMSF, 1 μg/mL aprotinin, 1 μg/mL leupeptin, and 1 μg/mL pepstatin], followed by incubation on ice for 10 minutes and centrifugation at 13,000 rpm for 15 minutes to extract proteins. The proteins were quantified by BCA assay and equal amounts of proteins were separated by 8-10% SDS-PAGE. The separated proteins were transferred to a PVDF membrane, and the areas of the membrane not transferred with protein were blocked by incubating the membrane in 5% skim milk solution or 3% BSA solution diluted in TBST at room temperature for 1 hour. The membrane was then incubated in a primary antibody solution diluted 1:1,000 in 3% BSA at 4° C. for more than 12 hours. The primary antibody used was either anti-Hsp70 or anti-actin, with the anti-Hsp70 antibody obtained from Enzo Life Science and the actin antibody obtained from Santa Cruz Biotechnology. After incubation, the membrane was washed for 1 hour while changing TBST several times, and then incubated for 1 hour at room temperature with a secondary antibody (GeneTex) diluted 1:5,000 in 5% skim milk solution. After incubation, the membrane was washed for 1 hour while changing TBST several times, and then treated with an enhanced chemiluminescence (ECL) solution. The expression of Hsp70 or Actin protein was detected using LAS4000.

[2] = system: various lung cancer cell lines and chemotherapeutic agent-resistant lung cancer cell lines; test: Cell viability in lung cancer and chemotherapeutic drug-resistant lung cancer cell lines; format: cell-based, human; conditions: lung cancer and chemotherapeutic agent-resistant lung cancer cell lines (FIG. 13, 15)
From the text: (§3) Human lung cancer cell lines (H1299, H460, A549, H226B, and PC9), breast cancer cell line (MDA-MB-231), liver cancer cell line (Hep3B), kidney cancer cell line (786-0), prostate cancer cell lines (DU145 and PC-3), and mouse lung cancer cell line (Lewis Lung Carcinoma, LLC) were purchased from ATCC (American Type Culture Collection) or obtained from Dr. John V. Heymach of MD Anderson Cancer Center, USA. The human head and neck cancer cell line (UMSCC38) was obtained from Dr. Jeffrey N. Myers (MD Anderson Cancer Center, USA). […]
as §2, with “Cell viability was calculated as the percentage of absorbance change in drug-treated group compared to vehicle (DMSO) treated control group.” left out

[3] = system: various lung cancer cells and chemotherapeutic drug-resistant lung cancer cell lines; test: Anchorage-dependent colony formation in lung cancer and drug-resistant lung cancer cell lines; format: cell-based, human; conditions: 0.5 μM (FIG. 14, 16)
From the text: as §3, with “USA). Human colon cancer cell lines (HCT116 and HT-29) and glioblastoma cell line (U87MG) were obtained from Professor Sang Kook Lee (Seoul National University College of Pharmacy). The human kidney cancer cell line (Caki-1), and gastric cancer cell line (SNU-638) were purchased from the Korean Cell Line Bank.” for “USA).”
Cancer cell lines were seeded in a 24-well or 6-well plate at 100-250 cells per well and allowed to attach, followed by treatment with drugs diluted in media and cultured for 2-3 weeks. Formed colonies were stained with crystal violet and counted. The drug's colony formation inhibitory effect was calculated as the percentage of colony number change in the drug-treated group compared to the vehicle (DMSO)-treated control group.

lung cancer cell = test: Cancer cell survival inhibitory activity (MTT assay) of EV501 to EV509; format: cell-based; conditions: 0.5 μM (lowest concentration), MTT assay (FIG. 18)
Procedure: as §2

cancer cell = test: Cancer cell survival inhibitory activity (crystal violet assay); format: cell-based; conditions: crystal violet assay (FIG. 19)
Procedure: as §2

lung cancer cells = test: Anchorage-independent (soft agar) colony formation; format: cell-based; conditions: soft agar (FIG. 20)
Procedure: Before the experiment, a 1% agar solution made with low-melting agar was placed in a 24-well plate and hardened at room temperature to create a bottom agar. The cells were diluted with medium to seed 2×10^3 cells per well in a 24-well plate. Then, it was mixed with a 1% agar solution to create a final 0.4% agar solution, which was then solidified at room temperature in the plate containing the bottom agar. Medium containing the drug was added on top of the cells mixed in the agar and cultured for 1-3 weeks at 37° C. in a 5% CO2 condition, after which the formed colonies were stained with an MTT solution of 250-500 μg/mL and counted. The colony formation inhibitory effect of the drug was calculated by expressing the change in colony numbers in the drug-treated group compared to the vehicle (DMSO) treated control group as a percentage.

SMILES: CN1c2ccc(Br)cc2C(=O)N2CCc3c([nH]c4ccccc34)C21 (stereo not drawn) [EV306]
lung cancer cell death (cell viability) (H1299 lung cancer cells): excellent effects

SMILES: COc1ccc2c(c1)C(=O)N1CCc3c([nH]c4ccccc34)C1N2C (stereo not drawn) [EV302]
lung cancer cell death (cell viability) (H1299 lung cancer cells): excellent effects

SMILES: CN1c2ccc(Cl)cc2C(=O)N2CCc3c([nH]c4ccccc34)C21 (stereo not drawn) [EV304]
lung cancer cell death (cell viability) (H1299 lung cancer cells): excellent effects

SMILES: C=C(C)CN1c2ccccc2C(=O)N2CCc3c([nH]c4ccccc34)C21 (stereo not drawn) [EV218, 14N-(2-methyl)allyl evodiamine]
lung cancer cell death (cell viability) (H1299 lung cancer cells): excellent effects

SMILES: CN1c2ccccc2C(=O)N2CCc3c([nH]c4ccc(Cl)cc34)C21 (stereo not drawn) [EV407]
lung cancer cell death (cell viability) (H1299 lung cancer cells): excellent effects

SMILES: CC#CCN1c2ccccc2C(=O)N2CCc3c([nH]c4ccccc34)C21 (stereo not drawn) [EV219]
lung cancer cell death (cell viability) (H1299 lung cancer cells): excellent effects

SMILES: COc1ccc2[nH]c3c(c2c1)CCN1C(=O)c2ccccc2N(C)C31 (stereo not drawn) [EV403]
lung cancer cell death (cell viability) (H1299 lung cancer cells): excellent effects

SMILES: CC(C)=CCN1c2ccccc2C(=O)N2CCc3c([nH]c4ccccc34)C21 (stereo not drawn) [EV217]
lung cancer cell death (cell viability) (H1299 lung cancer cells): excellent effects

SMILES: CN1c2ccc([N+](=O)[O-])cc2C(=O)N2CCc3c([nH]c4ccccc34)C21 (stereo not drawn) [EV303]
lung cancer cell death (cell viability) (H1299 lung cancer cells): excellent effects

SMILES: Cc1ccc2c(c1)C(=O)N1CCc3c([nH]c4ccccc34)C1N2C (stereo not drawn) [EV307]
lung cancer cell death (cell viability) (H1299 lung cancer cells): excellent effects

SMILES: C=CCN1c2ccccc2C(=O)N2CCc3c([nH]c4ccccc34)C21 (stereo not drawn) [EV206, 14N-Allyl Evodiamine]
lung cancer cell death (cell viability) (H1299 lung cancer cells): excellent effects
expression of Hsp70 protein and Hsp70/Hsp90 client proteins (Akt, Src, and MEK) [1]: clear reduction
growth-inhibitory effect [2]: excellent growth-inhibitory effects
formation of colonies under anchorage-dependent (adherent) conditions [3]: significantly inhibited

SMILES: COc1cccc2c1C(=O)N1CCc3c([nH]c4ccccc34)C1N2C (stereo not drawn) [EV309]
lung cancer cell death (cell viability) (H1299 lung cancer cells): excellent effects

SMILES: CN1c2ccccc2C(=O)N2CCc3c([nH]c4ccc(O)cc34)C21 (stereo not drawn) [EV408]
lung cancer cell death (cell viability) (H1299 lung cancer cells): excellent effects
expression of Hsp70 protein and Hsp70/Hsp90 client proteins (Akt, Src, and MEK) [1]: clear reduction
growth-inhibitory effect [2]: excellent growth-inhibitory effects
formation of colonies under anchorage-dependent (adherent) conditions [3]: significantly inhibited

SMILES: CN1c2cccc(Cl)c2C(=O)N2CCc3c([nH]c4ccccc34)C21 (stereo not drawn) [EV308]
lung cancer cell death (cell viability) (H1299 lung cancer cells): excellent effects

SMILES: C=CCN1c2ccccc2C(=O)N2CCc3c([nH]c4c([N+](=O)[O-])cc([N+](=O)[O-])cc34)C21 (stereo not drawn) [EV503]
inhibition at 0.5 µM (lung cancer cell): > 50%
melting point: 229 to 231 °C

melting point: 230 to 232 °C
SMILES: C#CCN1c2ccccc2C(=O)N2CCc3c([nH]c4ccc(O)cc34)C21 (stereo not drawn) [EV508]
inhibition at 0.5 µM (lung cancer cell): > 65%
cancer cell survival inhibitory activity (cancer cell): as excellent as EV507
anchorage-independent colony formation (lung cancer cells): effectively inhibited

SMILES: C#CCN1c2ccccc2C(=O)N2CCc3c([nH]c4ccccc34)C21 (stereo not drawn) [EV205, 14N-propagyl Evodiamine]
lung cancer cell death (cell viability) (H1299 lung cancer cells): excellent effects

melting point: 261 to 262 °C
SMILES: C=C(C)CN1c2ccccc2C(=O)N2CCc3c([nH]c4ccc([N+](=O)[O-])cc34)C21 (stereo not drawn) [EV502]
inhibition at 0.5 µM (lung cancer cell): > 50%

melting point: 186 to 188 °C
SMILES: C=CCN1c2ccccc2C(=O)N2CCc3c([nH]c4ccc([N+](=O)[O-])cc34)C21 (stereo not drawn) [EV501]
inhibition at 0.5 µM (lung cancer cell): > 65%
cancer cell survival inhibitory activity (cancer cell): as excellent as EV507
anchorage-independent colony formation (lung cancer cells): effectively inhibited
expression of Hsp70 and Src and Akt (client proteins of Hsp70/Hsp90) ([1]; Western blot (FIG. 21)): decrease

SMILES: C=C(C)CN1c2ccccc2C(=O)N2CCc3c([nH]c4c([N+](=O)[O-])cc([N+](=O)[O-])cc34)C21 (stereo not drawn) [EV504]
cancer cell survival inhibitory activity (cancer cell): as excellent as EV507
melting point: 175 to 177 °C

SMILES: C#CCN1c2ccccc2C(=O)N2CCc3c([nH]c4c([N+](=O)[O-])cc([N+](=O)[O-])cc34)C21 (stereo not drawn) [EV506]
inhibition at 0.5 µM (lung cancer cell): > 50%
melting point: 232 to 234 °C

melting point: 211 to 213 °C
SMILES: C=C(C)CN1c2ccccc2C(=O)N2CCc3c([nH]c4ccc(O)cc34)C21 (stereo not drawn) [EV509]
inhibition at 0.5 µM (lung cancer cell): > 65%
cancer cell survival inhibitory activity (cancer cell): as excellent as EV507
anchorage-independent colony formation (lung cancer cells): effectively inhibited

SMILES: Cc1ccc2[nH]c3c(c2c1)CCN1C(=O)c2ccccc2N(C)C31 (stereo not drawn) [EV406]
lung cancer cell death (cell viability) (H1299 lung cancer cells): excellent effects

SMILES: CN1c2ccc(I)cc2C(=O)N2CCc3c([nH]c4ccccc34)C21 (stereo not drawn) [EV310]
lung cancer cell death (cell viability) (H1299 lung cancer cells): excellent effects

SMILES: CCCOc1ccc2[nH]c3c(c2c1)CCN1C(=O)c2ccccc2N(C)C31 (stereo not drawn) [EV413]
lung cancer cell death (cell viability) (H1299 lung cancer cells): excellent effects

SMILES: CN1c2ccccc2C(=O)N2CCc3c([nH]c4ccc([N+](=O)[O-])cc34)C21 (stereo not drawn) [EV401]
lung cancer cell death (cell viability) (H1299 lung cancer cells): excellent effects

SMILES: CN1c2ccc(F)cc2C(=O)N2CCc3c([nH]c4ccccc34)C21 (stereo not drawn) [EV301]
lung cancer cell death (cell viability) (H1299 lung cancer cells): excellent effects

SMILES: CN1c2ccccc2C(=O)N2CCc3c([nH]c4c([N+](=O)[O-])cc([N+](=O)[O-])cc34)C21 (stereo not drawn) [EV402]
lung cancer cell death (cell viability) (H1299 lung cancer cells): excellent effects
